Entries after “also recorded” stand apart in the source; their conditions may differ.
Legend:
DNA = experiment: Absorption and emission spectra and quantum efficiency in the presence of DNA; type: physicochemical
Protocol: Absorption spectra (λabs), emission spectra (λem) and quantum efficiency measured in the presence of DNA with compounds 1 to 8 and 36 to 39, and commercially available SYBR® safe were measured and are shown in Table 3 below.

[1] = Absorption and emission spectra, molar extinction coefficient and quantum efficiency in solvent; type: physicochemical
Protocol: Absorption spectra (λabs), emission spectra (λem), molar extinction coefficient (ε) and quantum efficiency of compounds 1 to 8 obtained in Preparation Examples 1 to 4, and commercially available SYBR® safe were measured and shown in Table 1 below.
Absorption spectra (λabs), emission spectra (λem), molar extinction coefficient (ε) and quantum efficiency of Compounds 36 to 39 obtained in Preparation Examples 6 and 7 and commercially available SYBR® safe were measured and shown in Table 2 below.

[2] = test system: Salmonella typhimurium TA98 strain; experiment: Ames test with S9 mixture; settings: for Number of colonies per plate: TA98, S9 mixture
[3] = Thermal stability test, absorbance on standing at 95° C. in PCR reaction buffer; type: physicochemical
Protocol: In order to confirm the stability of the fluorescent dye in the PCR reaction, 20 μL of PCR reaction buffer containing 1 μL of Compound 38 and 1 μL of EvaGreen™ (Biotium), respectively, was prepared. Each PCR reaction buffer was heated to 95° C., and the absorbance which varies with the standing time at 95° C. was measured.

Photobleaching test = type: physicochemical; settings: low concentration
Protocol: Real-Time PCR was performed in a 20 μL reaction solution containing only 5 μL of fluorescent dyes (Compound 38, SYBR® green I (Invitrogen) or EvaGreen™ (Biotium)) at various concentrations (dilution times). Cycles of 30 seconds at 25° C. and 30 seconds at 25° C. were repeated 60 times. Fluorescence intensity was measured for each cycle (1 minute) to observe photobleaching of fluorescent dyes at various concentrations (dilution times).

Hela cells = experiment: Cell permeability test; type: cell-based; settings: 1 μM, 37° C., 30 minutes, microscope
Protocol: Hela cells were cultured in MEM medium containing 10% fetal bovine serum (FBS) and 1% penicillin/streptomycin (10,000 units penicillin and 10,000 μg/mL streptomycin, Invitrogen) under a humidified atmosphere of CO2 at 37° C. Hela cells were washed with medium No. 3, and 1 μM of SYBR® safe and Compound 6 were treated with Hela Cells and cultured at 37° C. for 30 minutes.

Row | Structure (SMILES) | Quantum efficiency (DNA) | λabs (DNA) [nm] | λem (DNA) [nm] | Quantum efficiency ([1]; DMSO) | ε (molar extinction coefficient) ([1]; DMSO) | λabs ([1]; DMSO) [nm] | λem ([1]; DMSO) [nm] | Quantum efficiency ([1]; buffer) | ε (molar extinction coefficient) ([1]; buffer) | λabs ([1]; buffer) [nm] | λem ([1]; buffer) [nm] | further results
1 | O=C(CCCCCN1C=CC2=C3c4sc5ccccc5[n+]4CCC3Oc3cccc1c32)NCCOCCOCCNC(=O)CCCCCN1C=CC2=C3c4sc5ccccc5[n+]4CCC3Oc3cccc1c32 (stereo not shown) [Compound 3] | 0.86 | 517 | 540 | 0.55 | 84,000 M^−1cm^−1 | 517 | 565 | 0.03 | 66,000 M^−1cm^−1 | 484 | 564 | 
2 | O=C(CCCCCN1C=CC2=C3c4sc5ccc(Cl)cc5[n+]4CCC3Oc3cccc1c32)NCCOCCNC(=O)CCCCCN1C=CC2=C3c4sc5ccc(Cl)cc5[n+]4CCC3Oc3cccc1c32 (stereo not shown) [Compound 5] | 0.86 | 517 | 537 | 0.64 | 73,000 M^−1cm^−1 | 517 | 564 | 0.05 | 60,000 M^−1cm^−1 | 484 | 562 | 
3 | O=C(CCCCCN1C=CC2=C3c4sc5ccc(Cl)cc5[n+]4CCC3Oc3cccc1c32)NCCOCCOCCNC(=O)CCCCCN1C=CC2=C3c4sc5ccc(Cl)cc5[n+]4CCC3Oc3cccc1c32 (stereo not shown) [Compound 6] | 0.73 | 517 | 538 | 0.62 | 70,000 M^−1cm^−1 | 517 | 563 | 0.04 | 60,000 M^−1cm^−1 | 484 | 564 | Number of colonies per plate ([2]; 8 μg/plate): 24 ± 6; Number of colonies per plate ([2]; 40 μg/plate): 57 ± 3; genotoxicity (Ames test), in words ([2]; TA98, S9 metabolic activity): no significant increase in colony counts; also recorded: lower genotoxicity than SYBR® safe
4 | O=C(CCCCCN1C=CC2=C3c4oc5ccccc5[n+]4CCC3Oc3cccc1c32)NCCOCCNC(=O)CCCCCN1C=CC2=C3c4oc5ccccc5[n+]4CCC3Oc3cccc1c32 (stereo not shown) [Compound 36] | 0.67 | 492 | 511 | 0.65 | 95,000 M^−1cm^−1 | 492 | 520 | 0.12 | 83,000 M^−1cm^−1 | 458 | 526 | 
5 | O=C(CCCCCN1C=CC2=C3c4oc5ccccc5[n+]4CCC3Oc3cccc1c32)NCCOCCOCCNC(=O)CCCCCN1C=CC2=C3c4oc5ccccc5[n+]4CCC3Oc3cccc1c32 (stereo not shown) [Compound 37] | 0.64 | 492 | 512 | 0.63 | 100,000 M^−1cm^−1 | 492 | 520 | 0.14 | 85,000 M^−1cm^−1 | 458 | 524 | 
6 | O=C(CCCCCN1C=CC2=C3c4oc5ccccc5[n+]4CCC3Oc3cccc1c32)NCCOCCOCCOCCNC(=O)CCCCCN1C=CC2=C3c4oc5ccccc5[n+]4CCC3Oc3cccc1c32 (stereo not shown) [Compound 38] | 0.76 | 492 | 512 | 0.67 | 110,000 M^−1cm^−1 | 492 | 520 | 0.17 | 95,000 M^−1cm^−1 | 459 | 522 | high temperature stability ([3]; 95° C., compared with EvaGreen): greater than EvaGreen™; Absorbance ([3]; standing time 0 hr at 95° C.): 0.127; Absorbance ([3]; standing time 0.5 hr at 95° C.): 0.149; Absorbance ([3]; standing time 1 hr at 95° C.): 0.162; Absorbance ([3]; standing time 2 hr at 95° C.): 0.163; Absorbance ([3]; standing time 3 hr at 95° C.): 0.178
7 | CC[n+]1c(-c2ccccc2)c2cc(N)ccc2c2ccc(N)cc21.[Br-] [EtBr, ethidium bromide, reference compound] |  |  |  |  |  |  |  |  |  |  |  | Number of colonies per plate ([2]; 40 μg/plate): 3051 ± 181
8 | CCCN(CCCN(C)C)c1cc(/C=C2/Sc3ccccc3N2C)c2ccccc2[n+]1-c1ccccc1 [SYBR ® green I] |  |  |  |  |  |  |  |  |  |  |  | half-life (photobleaching) (Photobleaching test): 5.5 h
9 | CCC[n+]1ccc(/C=C2\Sc3ccccc3N2C)c2ccccc21 [SYBR ® safe, reference compound] | 0.021 | 503 | 535 | 0.006 | 77,000 M^−1cm^−1 | 509 |  | 0.006 | 57,000 M^−1cm^−1 | 502 |  | Number of colonies per plate ([2]; 1.6 μg/plate): 81 ± 7; cell permeability (Hela cells): shows cell permeability

Continued, in another order:

Row | Quantum efficiency (DNA) | λabs (DNA) [nm] | λem (DNA) [nm] | Quantum efficiency ([1]; DMSO) | ε (molar extinction coefficient) ([1]; DMSO) | λabs ([1]; DMSO) [nm] | λem ([1]; DMSO) [nm] | Quantum efficiency ([1]; buffer) | ε (molar extinction coefficient) ([1]; buffer) | λabs ([1]; buffer) [nm] | λem ([1]; buffer) [nm] | Structure (SMILES) | further results
10 | 1.00 | 517 | 541 | 0.52 | 109,000 M^−1cm^−1 | 517 | 567 | 0.03 | 92,000 M^−1cm^−1 | 484 | 568 | O=C(CCCCCN1C=CC2=C3c4sc5ccccc5[n+]4CCC3Oc3cccc1c32)NCCOCCNC(=O)CCCCCN1C=CC2=C3c4sc5ccccc5[n+]4CCC3Oc3cccc1c32 (stereo not shown) [Compound 1] | 
11 | 0.93 | 517 | 541 | 0.88 | 101,000 M^−1cm^−1 | 517 | 566 | 0.08 | 83,000 M^−1cm^−1 | 484 | 565 | O=C(CCCCCN1C=CC2=C3c4sc5ccccc5[n+]4CCC3Oc3cccc1c32)NCCCOCCOCCOCCCNC(=O)CCCCCN1C=CC2=C3c4sc5ccccc5[n+]4CCC3Oc3cccc1c32 (stereo not shown) [Compound 2] | 
12 | 0.88 | 517 | 539 | 0.73 | 95,000 M^−1cm^−1 | 517 | 565 | 0.03 | 85,000 M^−1cm^−1 | 484 | 566 | O=C(CCCCCN1C=CC2=C3c4sc5ccccc5[n+]4CCC3Oc3cccc1c32)NCCOCCOCCOCCNC(=O)CCCCCN1C=CC2=C3c4sc5ccccc5[n+]4CCC3Oc3cccc1c32 (stereo not shown) [Compound 4] | 
13 | 0.71 | 517 | 538 | 0.64 | 83,000 M^−1cm^−1 | 517 | 563 | 0.06 | 75,000 M^−1cm^−1 | 484 | 560 | O=C(CCCCCN1C=CC2=C3c4sc5ccc(Cl)cc5[n+]4CCC3Oc3cccc1c32)NCCOCCOCCOCCNC(=O)CCCCCN1C=CC2=C3c4sc5ccc(Cl)cc5[n+]4CCC3Oc3cccc1c32 (stereo not shown) [Compound 7] | 
14 | 0.80 | 517 | 538 | 0.71 | 89,000 M^−1cm^−1 | 517 | 563 | 0.04 | 78,000 M^−1cm^−1 | 484 | 565 | O=C(CCCCCN1C=CC2=C3c4sc5ccc(Cl)cc5[n+]4CCC3Oc3cccc1c32)NCCCOCCOCCOCCCNC(=O)CCCCCN1C=CC2=C3c4sc5ccc(Cl)cc5[n+]4CCC3Oc3cccc1c32 (stereo not shown) [Compound 8] | 
15 | 0.70 | 492 | 513 | 0.70 | 116,000 M^−1cm^−1 | 492 | 520 | 0.15 | 98,000 M^−1cm^−1 | 459 | 523 | O=C(CCCCCN1C=CC2=C3c4oc5ccccc5[n+]4CCC3Oc3cccc1c32)NCCCOCCOCCOCCCNC(=O)CCCCCN1C=CC2=C3c4oc5ccccc5[n+]4CCC3Oc3cccc1c32 (stereo not shown) [Compound 39] | 

Reference: US9969887B2, “Merocyanine-based compounds, and dyes, kits and contrast medium compositions for labelling biomolecules comprising the same” (SFC CO., LTD., priority 2016, dated 2018)
